Data published in patent US12478617B2, “Lipidated peptide inhibitors of interleukin-23 receptor” (JANSSEN BIOTECH, INC., priority 2021, dated 2025).
Positions of bridges follow the written chain, without caps; N, C: chain ends. Non-standard residues stand in square brackets, D forms with d. Residues, ends and D or L forms follow the SMILES beside them. *: point of attachment. X1 = O=C(O)CCCCCCCCCCCCCCC(=O)N[C@@H](CCCCN*)C(=O)O; Trp(7-Me) = Cc1cccc2c(C[C@H](N)C(=O)O)c[nH]c12; 2Nal = N[C@@H](Cc1ccc2ccccc2c1)C(=O)O; AEF = NCCOc1ccc(C[C@H](N)C(=O)O)cc1; 3Pal = N[C@@H](Cc1cccnc1)C(=O)O; Pen = CC(C)(S)[C@H](N)C(=O)O; Thp = NC1(C(=O)O)CCOCC1; AEEA = NCCOCCOCC(=O)O; Sar = CNCC(=O)O

Tests used:
[1] = from Ac-Pen-Asn-Thr-7MeTrp-Lys(Ac)-Pen-AEF-2Nal-THP-Lys(Ac)-Asn-3Pya-Sar-PEG2-PEG2-eLys(C16OH)-OH; disulfide bond; 20-membered ring; I2/AcOH; ACN/H2O; […]
IL-23R = target: T1, IL-23R (Homo sapiens, UniProt Q5VWK5); test: IL23R Reporter Assay; format: cell-based
T1 construct: HEK293 cells containing IL-23R, IL-12RP31 and a firefly luciferase reporter gene driven by a STAT-inducible promoter (Promega); host or cells: HEK293
T1 sequence (Q5VWK5 24-629): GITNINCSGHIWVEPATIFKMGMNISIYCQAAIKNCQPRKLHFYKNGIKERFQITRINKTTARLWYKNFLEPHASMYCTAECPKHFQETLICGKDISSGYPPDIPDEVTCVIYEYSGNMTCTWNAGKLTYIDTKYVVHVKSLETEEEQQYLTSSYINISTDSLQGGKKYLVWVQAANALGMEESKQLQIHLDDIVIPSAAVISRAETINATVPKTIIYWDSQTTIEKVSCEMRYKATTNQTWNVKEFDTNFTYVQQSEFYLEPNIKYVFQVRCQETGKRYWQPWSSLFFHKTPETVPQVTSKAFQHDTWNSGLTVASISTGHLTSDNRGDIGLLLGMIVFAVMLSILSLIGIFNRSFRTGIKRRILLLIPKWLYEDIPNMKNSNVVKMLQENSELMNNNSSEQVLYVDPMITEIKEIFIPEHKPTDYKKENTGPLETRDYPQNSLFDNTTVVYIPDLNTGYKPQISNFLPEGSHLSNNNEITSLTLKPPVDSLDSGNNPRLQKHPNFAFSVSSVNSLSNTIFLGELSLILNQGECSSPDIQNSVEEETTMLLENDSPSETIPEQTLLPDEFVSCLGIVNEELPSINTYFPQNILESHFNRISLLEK
In short: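 Luminescence from BioGlo, read after cells were moved to 20 °C, followed a 5 h incubation at 37 °C, 5% CO2 with DMSO-diluted test compounds.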

[2] = target: T2, peripheral blood mononuclear cells (PBMCs) (Homo sapiens, UniProt Q5VWK5); test: PBMC pSTAT3 assay; format: cell-based; details: PBMCs from healthy donors, anti-CD3/IL-1β cultured; peptide 30 min, then IL-23 5 ng/mL for 30 min; phosphorylated STAT3 (Meso Scale Discovery)
T2 sequence (Q5VWK5 24-629): T1 sequence (Q5VWK5 24-629)
Excerpt: IL-23 binding to IL-23 receptors results in the activation of the Signal Transducer and Activator of Transcription 3 (STAT3) by phosphorylation and downstream signaling events. Accordingly. the ability of the inhibitors described herein to block IL-23 action can be assessed by monitoring the status of STAT3 activation in response to IL-23. This may be accomplished in reporter cell assays or in intact cells such as peripheral blood mononuclear cells (PBMCs).

`CC(=O)NCCCC[C@@H]1NC(=O)[C@H](Cc2c[nH]c3c(C)cccc23)NC(=O)[C@H]([C@@H](C)O)NC(=O)[C@H](CC(N)=O)NC(=O)[C@@H](NC(C)=O)C(C)(C)SSC(C)(C)[C@@H](C(=O)N[C@@H](Cc2ccc(OCCN)cc2)C(=O)N[C@@H](Cc2ccc3ccccc3c2)C(=O)NC2(C(=O)N[C@@H](CCCCNC(C)=O)C(=O)N[C@@H](CC(N)=O)C(=O)N[C@@H](Cc3cccnc3)C(=O)N(C)CC(=O)NCCOCCOCC(=O)NCCOCCOCC(=O)NCCCC[C@H](NC(=O)CCCCCCCCCCCCCCC(=O)O)C(=O)O)CCOCC2)NC1=O` [Example 8, MeCO-Pen*-N-T-7MeW-K(Ac)-Pen*-AEF-2Nal-THP—K(Ac)-N— 3Pva-Sar-PEG2-PEG2-eK(C160H)-COOH (*Pen-Pen form disulfide bond)] (Ac-[Pen]NT[Trp(7-Me)]K(Ac)[Pen][AEF][2Nal][Thp]K(Ac)N[3Pal][Sar][AEEA][AEEA]-X1; disulfide 1-6) showed a ring closure, yield after HPLC [1] of 7%, an IC50 (IL-23R) of 0.089 nM and an IC50 [2] of 0.21 nM.
